Several values for one entry are separate records, joined by “and”; a condition that tells them apart may be missing. Equal values may be shown once.
Test system: Giardia duodenalis
Assay: Giardia cyst excretion in infected Beagle puppies, oral dose on three successive days (Biological Example 2)
Type: in vivo
Procedure: Method: The quantitative determination of the cyst excretion was performed using a modified version of Hewlett (18): 4 g faeces were dissolved in 100 ml of water, sieved and allowed to sediment. The sediment was applied to a 1 M sucrose gradient (specific gravity 1.13), and the cysts, which were concentrated at the sucrose/water boundary layer after the centrifugation were pipetted off. After a wash step followed by centrifugation, the cysts in the pellet were counted. To this end, an aliquot of the pellet was counted under the microscope, and the number of cysts per g faeces was calculated.
Beagle puppies aged 11-15 weeks which had at least 2 weeks to settle in the animal centre before being infected were infected orally with 50 000 Giardia duodenalis cysts before the beginning of the study. The cysts for the infection were obtained with the aid of a sucrose gradient from the faeces of dogs which excreted Giardia cysts and stored at 4 degrees centigrade in Bacto-Casitone medium for no longer than 2 weeks. 18 puppies which excreted Giardia cysts were included in the study and kept in individual cages in order to collect the daily total faeces. The quantitative determination of the cyst excretion was performed as an […], with the modification that the aliquot of the pellet was counted under the microscope with the aid of a Fuchs-Rosenthal hematocytometer. The quantitative determination of the cyst excretion was performed for 4 days before the treatment (day −3 to 0), and the puppies were divided randomly into three groups, taking into consideration the cyst excretion. […] The 6 dogs of the control group remained untreated. The quantitative determination of the cyst excretion was continued from day 1 to day 8 after the treatment.

SMILES: COC(=O)Nc1nc2ccc(Sc3ccccc3)cc2[nH]1 [fenbendazole]
- Activity (calculated activity on cyst excretion versus infected untreated control, day 3 to 8, 50 mg/kg oral on days 0, 1 and 2, 50 mg/kg): 48.3%
- Σ Giardia cyst excretion D0 (group line Σ (6 dogs), D0, day of treatment, 50 mg/kg oral on days D0, D1 and D2): 20274 cysts per g faeces
- Σ Giardia cyst excretion D1 (group line Σ (6 dogs), D1, day of treatment, 50 mg/kg oral on days D0, D1 and D2): 17010 cysts per g faeces
- Σ Giardia cyst excretion D2 (group line Σ (6 dogs), D2, day of treatment, 50 mg/kg oral on days D0, D1 and D2): 1735 cysts per g faeces
- Σ Giardia cyst excretion D3 (group line Σ (6 dogs), D3, after the treatment, 50 mg/kg oral on days D0, D1 and D2): 13929 cysts per g faeces
- Σ Giardia cyst excretion D4 (group line Σ (6 dogs), D4, after the treatment, 50 mg/kg oral on days D0, D1 and D2): 12781 cysts per g faeces
- Σ Giardia cyst excretion D5 (group line Σ (6 dogs), D5, after the treatment, 50 mg/kg oral on days D0, D1 and D2): 7555 cysts per g faeces
- Σ Giardia cyst excretion D6 (group line Σ (6 dogs), D6, after the treatment, 50 mg/kg oral on days D0, D1 and D2): 5494 cysts per g faeces
- Σ Giardia cyst excretion D7 (group line Σ (6 dogs), D7, after the treatment, 50 mg/kg oral on days D0, D1 and D2): 12913 cysts per g faeces
- Σ Giardia cyst excretion D8 (group line Σ (6 dogs), D8, after the treatment, 50 mg/kg oral on days D0, D1 and D2): 4795 cysts per g faeces
- Σ Giardia cyst excretion D−1 (group line Σ (6 dogs), day −1, before treatment, 50 mg/kg oral on days D0, D1 and D2): 58990 cysts per g faeces
- Σ Giardia cyst excretion D−2 (group line Σ (6 dogs), day −2, before treatment, 50 mg/kg oral on days D0, D1 and D2): 22257 cysts per g faeces
- Σ Giardia cyst excretion D−3 (group line Σ (6 dogs), day −3, before treatment, 50 mg/kg oral on days D0, D1 and D2): 29963 cysts per g faeces
- Σ Giardia cyst excretion Day 3 to 8 (group, after treatment, 50 mg/kg oral on days 0, 1 and 2): 9578 cysts per g faeces
- Σ Giardia cyst excretion Day: −3 to 0 (group, before treatment, 50 mg/kg oral on days 0, 1 and 2): 32871 cysts per g faeces
- Giardia cyst excretion D0 (individual dogs, D0, day of treatment, 50 mg/kg oral on days D0, D1 and D2, 50 mg/kg): 49400 cysts per g faeces and 28559 cysts per g faeces and 639 cysts per g faeces and 2719 cysts per g faeces and 17037 cysts per g faeces and 23290 cysts per g faeces
- Giardia cyst excretion D1 (individual dogs, D1, day of treatment, 50 mg/kg oral on days D0, D1 and D2, 50 mg/kg): 67200 cysts per g faeces and 14596 cysts per g faeces and 872 cysts per g faeces and 12488 cysts per g faeces and 6178 cysts per g faeces and 723 cysts per g faeces
- Giardia cyst excretion D2 (individual dogs, D2, day of treatment, 50 mg/kg oral on days D0, D1 and D2, 50 mg/kg): 0 cysts per g faeces (2×) and 5980 cysts per g faeces and 3386 cysts per g faeces and 490 cysts per g faeces and 552 cysts per g faeces
- Giardia cyst excretion D3 (individual dogs, D3, after the treatment, 50 mg/kg oral on days D0, D1 and D2, 50 mg/kg): 67109 cysts per g faeces and 7043 cysts per g faeces and 961 cysts per g faeces and 3075 cysts per g faeces and 0 cysts per g faeces and 5388 cysts per g faeces
- Giardia cyst excretion D4 (individual dogs, D4, after the treatment, 50 mg/kg oral on days D0, D1 and D2, 50 mg/kg): 49423 cysts per g faeces and 652 cysts per g faeces and 439 cysts per g faeces and 12038 cysts per g faeces and 0 cysts per g faeces and 14133 cysts per g faeces
- Giardia cyst excretion D5 (individual dogs, D5, after the treatment, 50 mg/kg oral on days D0, D1 and D2, 50 mg/kg): 3116 cysts per g faeces and 18725 cysts per g faeces and 4432 cysts per g faeces and 0 cysts per g faeces (2×) and 19057 cysts per g faeces
- Giardia cyst excretion D6 (individual dogs, D6, after the treatment, 50 mg/kg oral on days D0, D1 and D2, 50 mg/kg): 4635 cysts per g faeces and 7546 cysts per g faeces and 5594 cysts per g faeces and 3691 cysts per g faeces and 0 cysts per g faeces and 11495 cysts per g faeces
- Giardia cyst excretion D7 (individual dogs, D7, after the treatment, 50 mg/kg oral on days D0, D1 and D2, 50 mg/kg): 17474 cysts per g faeces and 20780 cysts per g faeces and 260 cysts per g faeces and 18056 cysts per g faeces and 251 cysts per g faeces and 20657 cysts per g faeces
- Giardia cyst excretion D8 (individual dogs, D8, after the treatment, 50 mg/kg oral on days D0, D1 and D2, 50 mg/kg): 0 cysts per g faeces (2×) and 5555 cysts per g faeces and 5968 cysts per g faeces and 10875 cysts per g faeces and 6370 cysts per g faeces
- Giardia cyst excretion D−1 (individual dogs, day −1, before treatment, 50 mg/kg oral on days D0, D1 and D2, 50 mg/kg): 243143 cysts per g faeces and 56014 cysts per g faeces and 2349 cysts per g faeces and 16328 cysts per g faeces and 14744 cysts per g faeces and 21360 cysts per g faeces
- Giardia cyst excretion D−2 (individual dogs, day −2, before treatment, 50 mg/kg oral on days D0, D1 and D2, 50 mg/kg): 47754 cysts per g faeces and 23808 cysts per g faeces and 26526 cysts per g faeces and 18113 cysts per g faeces and 7230 cysts per g faeces and 10109 cysts per g faeces

From patent US8440612B2, “Controlling giardiosis” (Bayer Intellectual Property GmbH, priority 2008, dated 2013)
